From patent publication US12528814B2, “Bifunctional degraders of interleukin-1 receptor-associated kinases and therapeutic use thereof” (NURIX THERAPEUTICS, INC., priority 2020, dated 2026)
pIC50: −log10 of the molar value. Like-named read-outs stand apart in the source and are kept apart here.

Legend:
[1] = biological target: T1, IRAK4 (Homo sapiens (Human), UniProt Q9NWZ3); test: IRAK4 Biochemical HTRF Kinase Assay; details: read-out: IRAK4 HTRF biochemical: IC50
Method in brief: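 IC50 values derive from non-linear regression of sixteen concentrations in duplicate. Kinase reaction ran 90 min at ambient temperature after adding 5 μM STK-S1 substrate, 10 mM ATP and 10 mM MgCl2 (reaction-solution levels, pre-dilution to 10 μl); phospho-peptide detected by HTRF after 60 min.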
Target sequence in this assay (Q9NWZ3 whole entry, species assumed): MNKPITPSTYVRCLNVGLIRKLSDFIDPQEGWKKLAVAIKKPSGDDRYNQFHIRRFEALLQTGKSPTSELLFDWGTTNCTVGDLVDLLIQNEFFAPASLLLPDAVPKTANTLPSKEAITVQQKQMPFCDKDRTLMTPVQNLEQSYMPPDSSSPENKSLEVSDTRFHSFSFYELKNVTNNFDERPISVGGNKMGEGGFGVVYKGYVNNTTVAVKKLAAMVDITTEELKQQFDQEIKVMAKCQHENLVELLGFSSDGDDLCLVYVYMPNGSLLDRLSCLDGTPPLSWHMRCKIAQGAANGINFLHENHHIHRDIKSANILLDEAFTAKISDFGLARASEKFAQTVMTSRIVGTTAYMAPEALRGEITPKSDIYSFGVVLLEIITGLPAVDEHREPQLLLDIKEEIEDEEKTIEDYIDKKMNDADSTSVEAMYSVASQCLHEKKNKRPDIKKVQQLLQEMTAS

[2] = biological target: T1, IRAK4; test: IRAK4 Degradation HiBiT Assay; details: HiBiT-tagged Jurkat cells, 4 hrs; for Dmax: Jurkat; for DC50: read-out: Cellular IRAK4 HiBiT: DC50
Target sequence in this assay (Q9NWZ3 whole entry): as the sequence (Q9NWZ3 whole entry, species assumed) above

[3] = read-out: Cellular IRAK4 HiBiT: Dmax, Table 4
[4] = read-out: Cellular IRAK4 HiBiT: Dmax, Table 5, multiple runs

SMILES	pIC50 ([1]; Table 4)	pIC50 ([1]; Table 5, multiple runs)	Dmax [2, 3] [%]	Dmax [2, 4] [%]	DC50 ([2]; Table 4) [nM]	DC50 ([2]; Table 5, multiple runs) [nM]
Cc1ncsc1-c1ccc([C@H](C)NC(=O)[C@@H]2C[C@@H](O)CN2C(=O)[C@@H](NC(=O)CCCCCCCC(=O)N2CCN(c3nnc(-c4cnc(-c5ccc6cc(C#N)cnn56)cc4NC(C)C)s3)CC2)C(C)(C)C)cc1 [Example 36, (2S,4R)-1-((S)-2-(9-(4-(5-(6-(3-cyanopyrrolo[1,2-b]pyridazin-7-yl)-4-(isopropylamino)pyridin-3-yl)-1,3,4-thiadiazol-2-yl)piperazin-1-yl)-9-oxononanamido)-3,3-dimethylbutanoyl)-4-hydroxy-N—((S)-1-(4-(4-methylthiazol-5-yl)phenyl)ethyl)pyrrolidine-2-carboxamide]	7.87	7.87	84	85	315	287
CNc1cc(-c2ccc3cc(C#N)cnn23)ncc1-c1nnc(C23CCC(NC(=O)CCC(=O)N[C@H](C(=O)N4C[C@H](O)C[C@H]4C(=O)N[C@@H](C)c4ccc(-c5scnc5C)cc4)C(C)(C)C)(CC2)CC3)s1 [Example 128, N1-(4-(5-(6-(3-cyanopyrrolo[1,2-b]pyridazin-7-yl)-4-(methylamino)pyridin-3-yl)-1,3,4-thiadiazol-2-yl)bicyclo[2.2.2]octan-1-yl)-N4—((S)-1-((2S,4R)-4-hydroxy-2-(((S)-1-(4-(4-methylthiazol-5-yl)phenyl)ethyl)carbamoyl)pyrrolidin-1-yl)-3,3-dimethyl-1-oxobutan-2-yl)succinamide]		8.77		139		432
Cc1ncsc1-c1ccc(CNC(=O)[C@@H]2C[C@@H](O)CN2C(=O)[C@@H](NC(=O)C2(F)CC2)C(C)(C)C)c(OCC(=O)N2CCC3(CC2)CCN(c2nnc(-c4cnc(-c5ccc6cc(C#N)cnn56)cc4NC(C)C)s2)CC3)c1 [Example 83, (2S,4R)—N-(2-(2-(9-(5-(6-(3-cyanopyrrolo[1,2-b]pyridazin-7-yl)-4-(isopropylamino)pyridin-3-yl)-1,3,4-thiadiazol-2-yl)-3,9-diazaspiro[5.5]undecan-3-yl)-2-oxoethoxy)-4-(4-methylthiazol-5-yl)benzyl)-1-((S)-2-(1-fluorocyclopropane-1-carboxamido)-3,3-dimethylbutanoyl)-4-hydroxypyrrolidine-2-carboxamide]		8.17		109		319
Cc1ncsc1-c1ccc(CNC(=O)[C@@H]2C[C@@H](O)CN2C(=O)[C@@H](NC(=O)C2(F)CC2)C(C)(C)C)c(OCCCC(=O)N2CCN(c3nnc(-c4cnc(-c5ccc6cc(C#N)cnn56)cc4NC(C)C)s3)CC2)c1 [Example 79, (2S,4R)—N-(2-(4-(4-(5-(6-(3-cyanopyrrolo[1,2-b]pyridazin-7-yl)-4-(isopropylamino)pyridin-3-yl)-1,3,4-thiadiazol-2-yl)piperazin-1-yl)-4-oxobutoxy)-4-(4-methylthiazol-5-yl)benzyl)-1-((S)-2-(1-fluorocyclopropane-1-carboxamido)-3,3-dimethylbutanoyl)-4-hydroxypyrrolidine-2-carboxamide]		8.01		113		137
Cc1ncsc1-c1ccc(CNC(=O)[C@@H]2C[C@@H](O)CN2C(=O)[C@@H](NC(=O)C2(F)CC2)C(C)(C)C)c(OCC(=O)N2CCC(C(=O)N3CCN(c4nnc(-c5cnc(-c6ccc7cc(C#N)cnn67)cc5NC(C)C)s4)CC3)CC2)c1 [Example 80, (2S,4R)—N-(2-(2-(4-(4-(5-(6-(3-cyanopyrrolo[1,2-b]pyridazin-7-yl)-4-(isopropylamino)pyridin-3-yl)-1,3,4-thiadiazol-2-yl)piperazine-1-carbonyl)piperidin-1-yl)-2-oxoethoxy)-4-(4-methylthiazol-5-yl)benzyl)-1-((S)-2-(1-fluorocyclopropane-1-carboxamido)-3,3-dimethylbutanoyl)-4-hydroxypyrrolidine-2-carboxamide]		8.43		115		313
CNc1cc(-c2ccc3cc(C#N)cnn23)ncc1-c1nnc(N2CC3CCC(C2)N3C2CCN(Cc3ccc4c(c3)C(=O)N(C3CCC(=O)NC3=O)C4=O)CC2)s1 (stereo not drawn) [Example 165, 7-(5-(5-(8-(1-((2-(2,6-dioxopiperidin-3-yl)-1,3-dioxoisoindolin-5-yl)methyl)piperidin-4-yl)-3,8-diazabicyclo[3.2.1]octan-3-yl)-1,3,4-thiadiazol-2-yl)-4-(methylamino)pyridin-2-yl)pyrrolo[1,2-b]pyridazine-3-carbonitrile]		9.40		100		21

The remaining lines, values ahead:

pIC50 ([1]; Table 4)	pIC50 ([1]; Table 5, multiple runs)	Dmax [2, 3] [%]	Dmax [2, 4] [%]	DC50 ([2]; Table 4) [nM]	DC50 ([2]; Table 5, multiple runs) [nM]	SMILES
8.92	8.92	92	91	108	98.1	CC(C)Nc1cc(-c2ccc3cc(C#N)cnn23)ncc1-c1nnc(N2CCN(C(=O)C3CCN(C[C@H]4CCN(c5ccc6c(c5)C(=O)N(C5CCC(=O)NC5=O)C6=O)C4)CC3)CC2)s1 (stereo partly drawn) [Example 12, 7-(5-(5-(4-(1-(((3R)-1-(2-(2,6-dioxopiperidin-3-yl)-1,3-dioxoisoindolin-5-yl)pyrrolidin-3-yl)methyl)piperidine-4-carbonyl)piperazin-1-yl)-1,3,4-thiadiazol-2-yl)-4-(isopropylamino)pyridin-2-yl)pyrrolo[1,2-b]pyridazine-3-carbonitrile]
	9.40		16		612	CNc1cc(-c2ccc3cc(C#N)cnn23)ncc1-c1nnc([C@H]2CC[C@H](NC(=O)CCC(=O)N[C@H](C(=O)N3C[C@H](O)C[C@H]3C(=O)N[C@@H](C)c3ccccc3)C(C)(C)C)CC2)s1 [Example 173, N1-((1r,4S)-4-(5-(6-(3-cyanopyrrolo[1,2-b]pyridazin-7-yl)-4-(methylamino)pyridin-3-yl)-1,3,4-thiadiazol-2-yl)cyclohexyl)-N4—((S)-1-((2S,4R)-4-hydroxy-2-(((S)-1-phenylethyl)carbamoyl)pyrrolidin-1-yl)-3,3-dimethyl-1-oxobutan-2-yl)succinamide]
	8.92		20		27.1	CNc1cc(-c2ccc3cc(C#N)cnn23)ncc1-c1nnc([C@H]2CC[C@@H](NC(=O)CCOCCOCCOCCNc3cccc4c3C(=O)N(C3CCC(=O)NC3=O)C4=O)CC2)s1 (stereo partly drawn) [Example 117, N-((1s,4s)-4-(5-(6-(3-cyanopyrrolo[1,2-b]pyridazin-7-yl)-4-(methylamino)pyridin-3-yl)-1,3,4-thiadiazol-2-yl)cyclohexyl)-3-(2-(2-(2-((2-(2,6-dioxopiperidin-3-yl)-1,3-dioxoisoindolin-4-yl)amino)ethoxy)ethoxy)ethoxy)propanamide]
8.77	8.77	62	53	127	190	CC(C)Nc1cc(-c2ccc3cc(C#N)cnn23)ncc1-c1nnc(N2CCN(CCC3CCN(c4ccc5c(c4)C(=O)N(C4CCC(=O)NC4=O)C5=O)CC3)CC2)s1 (stereo not drawn) [Example 16, 7-(5-(5-(4-(2-(1-(2-(2,6-dioxopiperidin-3-yl)-1,3-dioxoisoindolin-5-yl)piperidin-4-yl)ethyl)piperazin-1-yl)-1,3,4-thiadiazol-2-yl)-4-(isopropylamino)pyridin-2-yl)pyrrolo[1,2-b]pyridazine-3-carbonitrile]
	9.00				> 970	CNc1cc(-c2ccc3cc(C#N)cnn23)ncc1-c1nnc(N2CCN(C[C@@H]3CCN(c4ccc5c(c4)n(C)c(=O)n5C4CCC(=O)NC4=O)C3)CC2)s1 (stereo partly drawn) [Example 92, 7-(5-(5-(4-(((3S)-1-(1-(2,6-dioxopiperidin-3-yl)-3-methyl-2-oxo-2,3-dihydro-1H-benzo[d]imidazol-5-yl)pyrrolidin-3-yl)methyl)piperazin-1-yl)-1,3,4-thiadiazol-2-yl)-4-(methylamino)pyridin-2-yl)pyrrolo[1,2-b]pyridazine-3-carbonitrile]
	8.85				> 9980	CNc1cc(-c2ccc3cc(C#N)cnn23)ncc1-c1nnc([C@H]2CC[C@H](NC(=O)CN3CCN(c4ccc5c(c4)C(=O)N(C4CCC(=O)N(C)C4=O)C5=O)CC3)CC2)s1 (stereo partly drawn) [Example 148, N-((1r,4r)-4-(5-(6-(3-cyanopyrrolo[1,2-b]pyridazin-7-yl)-4-(methylamino)pyridin-3-yl)-1,3,4-thiadiazol-2-yl)cyclohexyl)-2-(4-(2-(1-methyl-2,6-dioxopiperidin-3-yl)-1,3-dioxoisoindolin-5-yl)piperazin-1-yl)acetamide]
	9.05				> 9980	CNc1cc(-c2ccc3cc(C#N)cnn23)ncc1-c1nnc(N2CCC(NC[C@@H]3CCN(c4ccc5c(c4)n(C)c(=O)n5C4CCC(=O)NC4=O)C3)CC2)s1 (stereo partly drawn) [Example 93, 7-(5-(5-(4-((((3S)-1-(1-(2,6-dioxopiperidin-3-yl)-3-methyl-2-oxo-2,3-dihydro-1H-benzo[d]imidazol-5-yl)pyrrolidin-3-yl)methyl)amino)piperidin-1-yl)-1,3,4-thiadiazol-2-yl)-4-(methylamino)pyridin-2-yl)pyrrolo[1,2-b]pyridazine-3-carbonitrile]
9.30	9.30	103	101	251	251	CC(C)Nc1cc(-c2ccc3cc(C#N)cnn23)ncc1-c1nnc(N2CCN(C(=O)C3CCN(CC4CCN(c5ccc6c(=O)n(C7CCC(=O)NC7=O)ccc6c5)CC4)CC3)CC2)s1 (stereo not drawn) [Example 21, 7-(5-(5-(4-(1-((1-(2-(2,6-dioxopiperidin-3-yl)-1-oxo-1,2-dihydroisoquinolin-6-yl)piperidin-4-yl)methyl)piperidine-4-carbonyl)piperazin-1-yl)-1,3,4-thiadiazol-2-yl)-4-(isopropylamino)pyridin-2-yl)pyrrolo[1,2-b]pyridazine-3-carbonitrile]
